Literature values, collected in US12263152B2, “Method of preventing and treating chemotherapy-induced alopecia” (JJR&D, LLC, priority 2022, dated 2025).
Where two headings read alike, the source gives them in different places.

Experiments:
CIA [1] = conditions: studies on humans
CIA [2] = conditions: neonatal rat model
[3] = test system: most commonly used alopecic chemotherapies; conditions: topical pretreatment, rats
[4] = test system: cyclophosphamide-induced alopecia; conditions: animal studies

Cl[TeH]1(Cl)(Cl)OCCO1 [AS101]
Protective role against CIA (CIA [1]): protective role | Protective role against CIA (CIA [2]): protective role

C=C1/C(=C\C=C2/CCC[C@]3(C)[C@@H]([C@H](C)CCCC(C)(C)O)CC[C@@H]23)C[C@@H](O)C[C@@H]1O [Calcitriol, 1,25-(OH)2D3]
Protection from the most commonly used alopecic chemotherapies [3]: protected | Patients with alopecia of <50% from baseline (alopecia; Week 7, of 23 female patients, topical 5-80 μg/mL twice daily): 8 patients | Patients with <50% alopecia maintained (alopecia; Week 15, of 23 female patients, topical 5-80 μg/mL twice daily): 2 patients | Maximum tolerated dose (alopecia; topical drug product, dose escalation up to 80 μg/mL twice daily): not reached

epidermal growth factor
Protection from cyclophosphamide (CTX)-induced alopecia [4]: lack of protection

recombinant interleukin 1 β: recombinant interleukin 1 β
Protection from cyclophosphamide (CTX)-induced alopecia [4]: lack of protection
